For test [1], the target named is T1, UDP-3-O-acyl-N-acetylglucosamine deacetylase (Escherichia coli K-12, UniProt P0A725).
T1 sequence (P0A725 whole entry): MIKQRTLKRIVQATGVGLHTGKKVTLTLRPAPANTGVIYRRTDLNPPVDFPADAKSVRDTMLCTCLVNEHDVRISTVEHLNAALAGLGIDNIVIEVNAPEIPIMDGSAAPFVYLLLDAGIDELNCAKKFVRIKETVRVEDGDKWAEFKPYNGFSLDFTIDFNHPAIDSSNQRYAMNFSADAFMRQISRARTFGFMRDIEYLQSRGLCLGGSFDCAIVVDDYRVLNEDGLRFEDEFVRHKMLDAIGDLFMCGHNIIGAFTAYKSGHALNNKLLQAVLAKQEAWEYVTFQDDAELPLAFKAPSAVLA
As to the kind of experiment: Inhibition of Escherichia coli LpxC using UDP-3-O-(R-3-hydroxymyristoyl)GlcNAc as substrate measured after 60 mins by fluorescence analysis.

Test [2] deals with Escherichia coli. As to the kind of experiment: Antibacterial activity against wild-type Escherichia coli TG1 after 16 to 20 hrs by agar dilution method. Type of test: functional. (In agar dilution the substance is mixed into plates at graded concentrations.)
Test [3] has as its system Escherichia coli. In words: Antibacterial activity against Escherichia coli KAM3 harboring acrB deletion mutant after 16 to 20 hrs by agar dilution method. Type of test: functional.
For a further test, the system named is Klebsiella pneumoniae. In words: Antibacterial activity against wild-type Klebsiella pneumoniae ATCC 13883 by agar dilution method. Type of test: functional.
Test [4] is described as follows: Ratio of MIC for wild-type Escherichia coli TG1 to MIC for Escherichia coli KAM3 acrB deletion mutant. Type of test: functional.
For test [5], the system named is Pseudomonas aeruginosa. As to the kind of experiment: Antibacterial activity against Pseudomonas aeruginosa K799/61 measured after 16 to 20 hrs by agar dilution method. Type of test: functional, organism-based.
The next test concerns Acinetobacter baumannii. In words: Antibacterial activity against Acinetobacter baumannii ATCC 19606 measured after 20 to 24 hrs by agar dilution method. Type of test: functional.
Test [6] has as its system Pseudomonas aeruginosa. As to the kind of experiment: Antibacterial activity against wild type Pseudomonas aeruginosa K799 measured after 16 to 20 hrs by agar dilution method. Type of test: functional, organism-based.
The subject of test [7] is Pseudomonas aeruginosa. In words: Antibacterial activity against Pseudomonas aeruginosa PAO4009 measured after 16 to 20 hrs by agar dilution method. Type of test: functional, organism-based.

pIC50: −log10 of the molar value. In brackets after ≈: the same amount, converted by molar mass. Activity calls are given as the source filed them. No cut-off for these calls is given here.

On to `O=C(NO)[C@@H]1CN(c2ccc(C#Cc3ccc(CN4CCOCC4)cc3)cc2)C(=O)N1`, for which the pIC50 in test [1] was 6.15. The MIC against Escherichia coli [2] is 8 µg/mL (≈ 19 µM); in the test with Escherichia coli [3], 0.5 µg/mL (≈ 1.19 µM); against Klebsiella pneumoniae, over 32 µg/mL.
Turning to `O=C(NO)[C@@H]1CN(c2ccc(C#CC#CCCCO)cc2)C(=O)O1`, the pIC50 in test [1] was 7.24. For the same compound, the MIC worked out at 0.125 µg/mL (≈ 0.381 µM) in the test on Escherichia coli [2], 0.031 µg/mL (≈ 0.0944 µM) against Escherichia coli [3] and 2 µg/mL (≈ 6.09 µM) with Klebsiella pneumoniae. Further, the Ratio in test [4] is 2.
For `O=C(NO)[C@@H]1CN(c2ccc(C#CC#C[C@H]3C[C@@H]3CO)cc2)C(=O)O1` (mixture of isomers), in that order: 7.70, 0.125 µg/mL, 0.016 µg/mL, 1 µg/mL and 2.
With `O=C(NO)[C@@H]1CN(c2ccc(C#Cc3ccc(CN4CCOCC4)cc3)cc2)C(=O)O1`, the result in the test on Pseudomonas aeruginosa [5], in the test on Acinetobacter baumannii, in the test on Pseudomonas aeruginosa [6] and in the test on Pseudomonas aeruginosa [7] was inactive. Moreover, in [1], the pIC50 is 6.89. The MIC against Escherichia coli [2] was 0.5 µg/mL (≈ 1.19 µM); in the test with Escherichia coli [3], 0.06 µg/mL (≈ 0.142 µM); in the test on Klebsiella pneumoniae it was 2 µg/mL (≈ 4.75 µM). Also, in [4], the Ratio came to 2.
For the compound `O=C(NO)[C@@H]1CN(c2ccc(C#CC#CC3CC3)cc2)C(=O)O1`, the outcome with Pseudomonas aeruginosa [5], in the test with Acinetobacter baumannii, with Pseudomonas aeruginosa [6] and in the test on Pseudomonas aeruginosa [7] was inactive. This compound had a pIC50 in test [1] of 7.74. Further, the MIC with Escherichia coli [2] turned out to be 0.063 µg/mL (≈ 0.203 µM); in the test with Escherichia coli [3] it was 0.016 µg/mL (≈ 0.0516 µM); in the test on Klebsiella pneumoniae it was 0.25 µg/mL (≈ 0.806 µM). The Ratio in test [4] is 2.
`C[C@@H](O)[C@H](NC(=O)c1ccc(C#Cc2ccc(CN3CCOCC3)cc2)cc1)C(=O)NO`: the MIC against Escherichia coli [2] came out at 0.13 µg/mL (≈ 0.297 µM); with Escherichia coli [3], 0.01 µg/mL (≈ 0.0229 µM); in the test on Klebsiella pneumoniae it was 0.25 µg/mL (≈ 0.571 µM).
In [1], `O=C(NO)[C@@H]1CN(c2ccc(C#CC#CC3CC3)c([N+](=O)[O-])c2)C(=O)O1` had a pIC50 of 7.57. In addition, the minimum inhibitory concentration (MIC) is 0.125 µg/mL (≈ 0.352 µM) against Escherichia coli [2], 0.31 µg/mL (≈ 0.872 µM) against Escherichia coli [3] and 1 µg/mL (≈ 2.81 µM) against Klebsiella pneumoniae. The Ratio in test [4] was determined as 2.
For `Nc1cc(N2C[C@@H](C(=O)NO)OC2=O)ccc1C#CC#CC1CC1`, in that order: 6.57, 0.25 µg/mL (≈ 0.768 µM), 0.063 µg/mL (≈ 0.194 µM), 2 µg/mL (≈ 6.15 µM) and 2.
For `O=C(NO)[C@@H]1CN(c2ccc(C#CC#CCCO)cc2)C(=O)O1`, the pIC50 in test [1] was 6.85. In addition, the MIC was 0.5 µg/mL (≈ 1.59 µM) against Escherichia coli [2], 0.125 µg/mL (≈ 0.398 µM) with Escherichia coli [3] and 8 µg/mL (≈ 25.5 µM) in the test on Klebsiella pneumoniae. For the same compound, in test [4], the Ratio stood at 2.
With `O=C(NO)[C@H]1CN(c2ccc(C#Cc3ccc(CN4CCOCC4)cc3)cc2)C(=O)O1`, the pIC50 in test [1] is 6.59. For the same compound, the results for the MIC against Escherichia coli [2], in the test with Escherichia coli [3] and against Klebsiella pneumoniae were 1 µg/mL (≈ 2.37 µM), 0.13 µg/mL (≈ 0.308 µM) and 8 µg/mL (≈ 19 µM), respectively.
For `O=C(NO)c1ccc(=O)n(-c2ccc(C#Cc3ccc(CN4CCOCC4)cc3)cc2)c1`, in that order: 6.00, 8 µg/mL (≈ 18.6 µM), 1 µg/mL (≈ 2.33 µM) and 64 µg/mL (≈ 149 µM).
For `O=C(NO)[C@@H]1CN(c2ccc(C#Cc3ccc(CN4CCOCC4)cc3)cc2)C(=O)CO1`, in that order: 6.29, 2 µg/mL (≈ 4.59 µM), 0.25 µg/mL (≈ 0.574 µM) and 16 µg/mL (≈ 36.7 µM).
Regarding `COc1cc(C#CC#CC2CC2)ccc1N1C[C@@H](C(=O)NO)OC1=O`, the negative logarithm of the IC50 (pIC50) in test [1] was 5.70. The minimum inhibitory concentration (MIC) was found to be 4 µg/mL (≈ 11.8 µM) in the test on Escherichia coli [2], 0.5 µg/mL (≈ 1.47 µM) in the test on Escherichia coli [3] and 32 µg/mL (≈ 94 µM) against Klebsiella pneumoniae. Besides, the Ratio in test [4] came to 2.
For `O=C(NO)[C@@H]1CN(c2ccc(C#CC#CC3CC3)c(F)c2)C(=O)O1`, the result in the test with Pseudomonas aeruginosa [5], in the test on Acinetobacter baumannii, in the test with Pseudomonas aeruginosa [6] and in the test on Pseudomonas aeruginosa [7] was inactive. For the same compound, the pIC50 in test [1] is 8.22. Also, the MIC in the test on Escherichia coli [2] was 0.016 µg/mL (≈ 0.0487 µM); in the test with Escherichia coli [3], 0.004 µg/mL (≈ 0.0122 µM); against Klebsiella pneumoniae, 0.063 µg/mL (≈ 0.192 µM). In addition, the Ratio in test [4] is 2.
`O=C(NO)[C@@H]1CN(c2ccc(C#CC#CC3CC3)cc2F)C(=O)O1`: the result in the test with Pseudomonas aeruginosa [5], in the test with Acinetobacter baumannii, with Pseudomonas aeruginosa [6] and with Pseudomonas aeruginosa [7] was inactive. In [1], the pIC50 was 6.70. For the same compound, the MIC turned out to be 0.5 µg/mL (≈ 1.52 µM) in the test with Escherichia coli [2], 0.25 µg/mL (≈ 0.762 µM) against Escherichia coli [3] and 4 µg/mL (≈ 12.2 µM) in the test with Klebsiella pneumoniae. Moreover, the Ratio in [4] worked out at 2.

The term pIC50 denotes −log10 of the IC50, conventionally taken in molar units. The MIC is the least concentration at which growth counts as inhibited. Read a high MIC as a less susceptible organism.
